The target in the assay is Endothelial lipase (EL) (Homo sapiens (Human), UniProt Q9Y5X9). Put plainly: Endothelial lipase (EL) enzymatic assay with fluorescent substrate A10070 in DMPG vesicles. The assay is classed as biochemical. The protocol:
Endothelial lipase (EL) and hepatic lipase (HL) activities were measured using a fluorescent substrate, A10070, (Invitrogen, CA) doped into an artificial vesicle containing DMPG (Avanti Polar Lipids) as the excipient. Vesicles were prepared by combining 571 μL of 29 mM DMPG in a 1:1 mixture of MeOH and CHCl3 with 2000 μL of 1 mM A10070 in a 1:1 mixture of MeOH and CHCl3. The mixture was dried under nitrogen in multiple vials then resuspended in 20 mL total volume of 50 mM HEPES pH 8.0 buffer containing 50 mM NaCl and 0.2 mM EDTA. The sample was allowed to sit at room temperature for 15 min and then was sonicated 3×4 mins on ice with a Branson Sonicator using duty cycle 1. This preparation provides vesicles with a mole fraction of 0.11 for the FRET substrate.
The enzymatic assay was measured using 384-well white Optiplates. Each well contained 20 μL of assay buffer (50 mM HEPES pH 8.0, 50 mM NaCl and 1 mM CaCl2) and 0.25 μL of a DMSO solution containing a compound of interest. EL or HL (10 μL) was added and allowed to incubate with the compound for 30 min at 37° C. The source of EL was conditioned media obtained from HT-1080 cells that were transformed using RAGE technology (Athersys) to overexpress endogenous EL, and HL was partially purified from conditioned media obtained from COS cells overexpressing HL. The reaction was started by the addition of 10 μL of a 1:10 dilution of vesicles. The final total reaction volume was […]. The reaction rates were measured on a Gemini plate reader with an excitation wavelength of 490 nm and an emission wavelength of 530 nm. Readings were taken over a period of 60 minutes, and the slope between 300 and 900 secs of the readout was used to calculate the rate of the reaction.

The term IC50 denotes the midpoint of a concentration-inhibition curve. Lower therefore signals greater potency in that assay.

Chain of Endothelial lipase (EL) (Q9Y5X9 21-500): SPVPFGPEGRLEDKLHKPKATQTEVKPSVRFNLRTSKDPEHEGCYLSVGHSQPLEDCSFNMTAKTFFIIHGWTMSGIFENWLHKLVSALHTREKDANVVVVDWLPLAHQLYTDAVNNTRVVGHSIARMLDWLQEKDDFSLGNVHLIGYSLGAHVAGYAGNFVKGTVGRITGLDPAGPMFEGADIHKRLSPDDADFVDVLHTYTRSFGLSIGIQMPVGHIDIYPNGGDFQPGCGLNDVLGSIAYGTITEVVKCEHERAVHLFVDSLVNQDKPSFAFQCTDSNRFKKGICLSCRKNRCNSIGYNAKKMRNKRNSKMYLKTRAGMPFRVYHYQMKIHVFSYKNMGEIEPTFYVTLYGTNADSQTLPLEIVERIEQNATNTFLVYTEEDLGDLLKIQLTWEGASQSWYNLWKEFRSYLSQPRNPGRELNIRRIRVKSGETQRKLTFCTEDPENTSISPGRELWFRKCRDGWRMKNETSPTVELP

Molecule `COCCS(=O)(=O)C(C(=O)NCC(=O)NC1CC1)c1nc2ccc(-c3ccc(N(C)C(=O)OC)cc3)cc2s1` (stereo not drawn) [Example 25, methyl N-{4-[2-({[(cyclopropyl-carbamoyl)methyl]carbamoyl}(2-methoxyethane-sulfonyl)methyl)-1,3-benzothiazol-6-yl]phenyl}-N-methylcarbamate] yielded an IC50 of 7 nM.

On to `COC(=O)Nc1ccc(-c2ccc3nc(C(C(=O)NCC(=O)NC4CC4)S(=O)(=O)CCC(F)(F)F)sc3c2)c(C)c1` (stereo not drawn) [Example 26], for which the IC50 came out at 7 nM.

`COCCS(=O)(=O)C(C(=O)NCC(=O)NC1CC1)c1nc2ccc(-c3ccc(N(C)C(C)=O)cc3)cc2s1` (stereo not drawn) [Example 27, N-[(cyclopropyl-carbamoyl)methyl]-2-(2-methoxy-ethanesulfonyl)-2-{6-[4-(N-methylacetamido)phenyl]-1,3-benzothiazol-2-yl}acetamide] had an IC50 of 58 nM.

`CC(=O)N(C)c1ccc(-c2ccc3nc(C(C(=O)NCC(=O)NC4CC4)S(=O)(=O)CCC(F)(F)F)sc3c2)cc1` (stereo not drawn) [Example 28, N-[(cyclopropyl-carbamoyl)methyl]-2-{6-[4-(N-methylacetamido)phenyl]-1,3-benzothiazol-2-yl}-2-(3,3,3-trifluoropropane-sulfonyl) acetamide]: the IC50 stood at 54 nM.

Consider `COC(=O)Nc1ccc(-c2ccc3nc(C(C(=O)NCC(=O)NC4CC4)S(C)(=O)=O)sc3c2)c(C)c1` (stereo not drawn) [Example 29, methyl N-{4-[2-({[(cyclopropyl-carbamoyl)methyl]carbamoyl} (methanesulfonyl)methyl)-1,3-benzothiazol-6-yl]-3-methylphenyl} carbamate], for which the IC50 worked out at 20 nM.

Consider `COCCS(=O)(=O)C(C(=O)NCC(=O)NC1CC1)c1nc2ccc(-c3ccc(NC(=O)OC)cc3C)cc2s1` (stereo not drawn) [Example 30, methyl N-{4-[2-({[(cyclopropy-lcarbamoyl)methyl]carbamoyl}(2-methoxyethane-sulfonyl)methyl)-1,3-benzothiazol-6-yl]-3-methylphenyl} carbamate], for which half-maximal inhibition (IC50) required 21 nM.

For the molecule `CC(=O)N(C)c1ccc(-c2cc3sc(C(C(=O)NCC(=O)NC4CC4)S(C)(=O)=O)nc3cc2F)cc1` (stereo not drawn) [Example 31, N-[(cyclopropyl-carbamoyl)methyl]-2-{5-fluoro-6-[4-(N-methylacetamido)phenyl]-1,3-benzothiazol-2-yl}-2-methanesulfonyl-acetamide], the 50% inhibitory concentration (IC50) worked out at 11 nM.

In turn, `COCCS(=O)(=O)C(C(=O)NCC(=O)NC1CC1)c1nc2cc(F)c(-c3ccc(N(C)C(=O)OC)cc3)cc2s1` (stereo not drawn) [Example 32, methyl N-{4-[2-({[(cyclopropyl-carbamoyl)methyl]carbamoyl}(2-methoxyethane-sulfonyl)methyl)-5-fluoro-1,3-benzothiazol-6-yl]phenyl}-N-methylcarbamate] came in with an IC50 of 6 nM.

`COC(=O)N(C)c1ccc(-c2cc3sc(C(C(=O)NCC(=O)NC4CC4)S(=O)(=O)CCC(F)(F)F)nc3cc2F)cc1` (stereo not drawn) [Example 33, methyl N-{4-[2-({[(cyclopropyl-carbamoyl)methyl]carbamoyl}(3,3,3-trifluoropropane-sulfonyl)methyl)-5-fluoro-1,3-benzothiazol-6-yl]phenyl}-N-methylcarbamate]: half-maximal inhibition (IC50) was put at 4 nM.

With `COC(=O)Nc1ccc(-c2cc3sc(C(C(=O)NCC(=O)NC4CC4)S(C)(=O)=O)nc3cc2F)c(C)c1` (stereo not drawn) [Example 34, methyl N-{4-[2-({[(cyclopropyl-carbamoyl)methyl]carbamoyl} (methanesulfonyl)methyl)-5-fluoro-1,3-benzothiazol-6-yl]-3-methylphenyl} carbamate], the IC50 was determined as 4 nM.

`COCCS(=O)(=O)C(C(=O)NCC(=O)NC1CC1)c1nc2cc(F)c(-c3ccc(NC(=O)OC)cc3C)cc2s1` (stereo not drawn) [Example 35, methyl N-{4-[2-({[(cyclopropyl-carbamoyl)methyl]carbamoyl}(2-methoxyethane-sulfonyl)methyl)-5-fluoro-1,3-benzothiazol-6-yl]-3-methylphenyl} carbamate] returned an IC50 of 8 nM.

Consider `COCCOC(=O)Nc1ccc(-c2cc3sc(C(C(=O)NCC(=O)NC4CC4)S(C)(=O)=O)nc3cc2F)cn1` (stereo not drawn) [Example 36, 2-methoxyethyl N-{5-[2-({[(cyclopropyl-carbamoyl)methyl]carbamoyl} (methanesulfonyl)methyl)-5-fluoro-1,3-benzothiazol-6-yl]pyridin-2-yl}carbamate], for which the IC50 was 11 nM.

Regarding `COCCOC(=O)Nc1ccc(-c2cc3sc(C(C(=O)NCC(=O)NC4CC4)S(=O)(=O)CCOC)nc3cc2F)cn1` (stereo not drawn) [Example 37, 2-methoxyethyl N-{5-[2-({[(cyclopropyl-carbamoyl)methyl]carbamoyl}(2-methoxyethane-sulfonyl)methyl)-5-fluoro-1,3-benzothiazol-6-yl]pyridin-2-yl} carbamate], the IC50 is 5 nM.

`CC(C)S(=O)(=O)C(C(=O)NCC(=O)NC1CC1)c1nc2cc(F)c(-c3ccc(NC(=O)OCc4ccccc4)cc3)cc2s1` (stereo not drawn) [Example 38, benzyl N-{4-[2-({[(cyclopropyl-carbamoyl)methyl]carbamoyl} (propane-2-sulfonyl)methyl)-5-fluoro-1,3-benzothiazol-6-yl]phenyl} carbamate]: the IC50 came out at 2 nM.

`CS(=O)(=O)C(C(=O)NCC(=O)NC1CC1)c1nc2cc(F)c(-c3cccc(Cl)c3)cc2s1` (stereo not drawn) [Example 39, 2-[6-(3-chlorophenyl)-5-fluoro-1,3-benzothiazol-2-yl]-N-[(cyclopropyl-carbamoyl)methyl]-2-methanesulfonyl-acetamide]: the IC50 turned out to be 3 nM.

Take `COCCS(=O)(=O)C(C(=O)NCC(=O)NC1CC1)c1nc2cc(F)c(-c3cccc(Cl)c3)cc2s1` (stereo not drawn) [Example 40, 2-[6-(3-chlorophenyl)-5-fluoro-1,3-benzothiazol-2-yl]-N-[(cyclopropyl-carbamoyl)methyl]-2-(2-methoxyethane-sulfonyl)acetamide]: 3 nM corresponded to half-maximal inhibition (IC50).

Molecule `CS(=O)(=O)C(C(=O)NCC(=O)NC1CC1)c1nc2cc(F)c(-c3ccc(C(=O)NCCC#N)cc3)cc2s1` (stereo not drawn) [Example 41, N-(2-cyanoethyl)-4-[2-({[(cyclopropyl-carbamoyl)methyl]carbamoyl} (methanesulfonyl)methyl)-5-fluoro-1,3-benzothiazol-6-yl]benzamide] yielded an IC50 of 5 nM.

With `COCCS(=O)(=O)C(C(=O)NCC(=O)NC1CC1)c1nc2cc(F)c(-c3ccc(C(=O)NCCC#N)cc3)cc2s1` (stereo not drawn) [Example 42, N-(2-cyanoethyl)-4-[2-({[(cyclopropyl-carbamoyl)methyl]carbamoyl}(2-methoxyethane-sulfonyl)methyl)-5-fluoro-1,3-benzothiazol-6-yl] benzamide], the IC50 came out at 7 nM.

For the molecule `CS(=O)(=O)Nc1ccc(-c2cc3sc(C(C(=O)NCC(=O)NC4CC4)S(=O)(=O)CCC(F)(F)F)nc3cc2F)cc1` (stereo not drawn) [Example 43, N-[(cyclopropyl-carbamoyl)methyl]-2-[5-fluoro-6-(4-methanesulfon-amidophenyl)-1,3-benzothiazol-2-yl]-2-(3,3,3-trifluoropropane-sulfonyl) acetamide], half-maximal inhibition (IC50) was put at 37 nM.

Regarding `N#CCCNC(=O)c1ccc(-c2cc3sc(C(C(=O)NCC(=O)NC4CC4)S(=O)(=O)CCC(F)(F)F)nc3cc2F)cc1` (stereo not drawn) [Example 44, N-(2-cyanoethyl)-4-[2-({[(cyclopropyl-carbamoyl)methyl]carbamoyl}(3,3,3-trifluoropropane-sulfonyl)methyl)-5-fluoro-1,3-benzothiazol-6-yl] benzamide], the IC50 is 3 nM.

`CCS(=O)(=O)C(C(=O)NCC(=O)NC1CC1)c1nc2cc(F)c(-c3ccc(NC(=O)OCc4ccccc4)cc3)cc2s1` (stereo not drawn) [Example 45, benzyl N-{4-[2-({[(cyclopropyl-carbamoyl)methyl]carbamoyl} (ethanesulfonyl)methyl)-5-fluoro-1,3-benzothiazol-6-yl]phenyl} carbamate] yielded an IC50 of 3 nM.

In the case of `O=C(CNC(=O)C(c1nc2cc(F)c(-c3ccc(NC(=O)OCc4ccccc4)cc3)cc2s1)S(=O)(=O)CCCC(F)(F)F)NC1CC1` (stereo not drawn) [Example 46, benzyl N-{4-[2-({[(cyclopropyl-carbamoyl)methyl]carbamoyl}(4,4,4-trifluorobutane-sulfonyl)methyl)-5-fluoro-1,3-benzothiazol-6-yl]phenyl}carbamate], the IC50 was determined as 2 nM.

On to `N#CCS(=O)(=O)C(C(=O)NCC(=O)NC1CC1)c1nc2cc(F)c(-c3ccc(NC(=O)OCc4ccccc4)cc3)cc2s1` (stereo not drawn) [Example 47, benzyl N-(4-{2-[(cyanomethane-sulfonyl) ({[(cyclopropyl-carbamoyl)methyl]carbamoyl}methyl]-5-fluoro-1,3-benzothiazol-6-yl}phenyl) carbamate], for which the half-inhibitory concentration (IC50) is 2 nM.

In the case of `CCCCCS(=O)(=O)C(C(=O)NCC(=O)NC1CC1)c1nc2cc(F)c(-c3ccc(NC(=O)OCc4ccccc4)cc3)cc2s1` (stereo not drawn) [Example 48, benzyl N-{4-[2-({[(cyclopropyl-carbamoyl)methyl]carbamoyl} (pentane-1-sulfonyl)methyl)-5-fluoro-1,3-benzothiazol-6-yl]phenyl}carbamate], the IC50 was 1 nM.
